Targets include HLA-DR DRB1*0901 (DR9) (Homo sapiens, UniProt P01903+P01911, A100R/A103E/D57H/D86V/F55Y/F60I/F76Y/I96F/K127E/L162R/M171V/P40D/Q125H/Q99R/R33Q/R42F/S133A/S66N/T210M/V115G/W38K/Y107V/Y59G/Y89S); HLA-DR DRB1*0701 (DR7) (Homo sapiens, UniProt P01903+P01911, A100R/A102G/A103Q/D57E/D86V/E43K/F76Y/K127E/L162R/M171V/P40G/Q125H/Q99D/R33Q/R42Y/R54Q/S133A/S66F/T210M/V115G/Y107V/Y59L/Y89S); HLA-DR DRB1*0405 (DR4) (Homo sapiens, UniProt P01903+P01911, A100R/A169T/D86S/F76Y/I96L/K127E/L162R/M171V/N62H/P40V/Q125Y/R42H/S133A/S149N/S66Y/V115G/V209L/W38E); HLA-DR DRB1*0401 (DR4) (Homo sapiens, UniProt P01903+P01911, A100K/A169T/F76Y/I96L/K127E/L162R/M171V/N62H/P40V/Q125Y/R42H/S133A/S149N/S66Y/V115G/V209L/W38E); HLA-DR DRB1*0301 (DR3) (Homo sapiens, UniProt P01903+P01911, A100K/A102G/A103R/A169T/F55Y/I96L/K41T/L162R/M171V/P40S/Q125H/Q178H/Q39Y/R42S/S66N/T106N/T262R/W38E/Y61H); HLA-DR DRB1*0101 (DR1) (Homo sapiens, UniProt P01903+P01911, A100R/D57E/F55L/F60I/F76Y/I96L/L162R/M171V/P40L/Q125E/R42F/V115G/Y59C).

Common to all, as to experiment: biochemical
Holding throughout (type): binding

For a further experiment, the target named is HLA-DR DRB5*0101 (DR51) (Homo sapiens, UniProt P01903+Q30154). Particulars: DRB5 *0101.
The target of the next experiment is HLA-DR DRB4*0101 (DR53) (Homo sapiens, UniProt P01903+P13762, G164S). Particulars: DRB4 *0101.
The next experiment deals with HLA-DR DRB1*1501 (DR15) (Homo sapiens, UniProt P01903+P01911). Particulars: DRBI *1501.
For the next experiment, the target named is HLA-DR DRB1*1302 (DR13) (Homo sapiens, UniProt P01903+P01911, A100E/A169T/K41T/L162R/M171V/P40S/Q125H/Q178H/Q39Y/Q99D/R42S/S66N/T262R/V115G/W38E/Y61H). Conditions: DRBI *1302.
Chain of HLA-DR DRB1*1302 (DR13) (P01903 26-254 limits assumed, other chains not shown): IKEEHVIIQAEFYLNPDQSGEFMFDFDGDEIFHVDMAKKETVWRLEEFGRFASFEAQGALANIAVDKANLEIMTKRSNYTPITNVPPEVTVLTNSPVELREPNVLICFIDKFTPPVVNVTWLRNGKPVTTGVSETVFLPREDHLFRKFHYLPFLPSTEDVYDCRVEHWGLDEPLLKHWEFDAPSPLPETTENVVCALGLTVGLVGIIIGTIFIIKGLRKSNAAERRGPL
The next experiment has as its target HLA-DR DRB1*1101 (DR11) (Homo sapiens, UniProt P01903+P01911, A100R/A169T/A87E/I96F/K41T/L162R/M171V/P40S/Q125H/Q178H/Q39Y/Q99D/R42S/S66Y/T262R/V115G/W38E). Conditions: DRB1 *1101.

For 10 compounds, IC50 results are on record in patent US20060079453A1, “Hla binding peptides and their uses” (priority 2002, published 2006).

Read-outs that look alike come from different tables or passages of the source. No end group written: not given here.

Chain of HLA-DR DRB1*0301 (DR3) (P01903 26-254 limits assumed, other chains not shown): as above
Chain of HLA-DR DRB1*1101 (DR11) (P01903 26-254 limits assumed, other chains not shown): as above

With CKFVVQLDIQSTKED [CKFVVQLDIQSTKED], the IC50 on HLA-DR DRB5*0101 (DR51) is above 31.4 µM; on HLA-DR DRB1*0901 (DR9) (DRB1 *0901), 19.3 µM; against HLA-DR DRB4*0101 (DR53), 0.301 µM; on HLA-DR DRB1*0701 (DR7) (DRB1 *0701), 4.55 µM; against HLA-DR DRB1*1501 (DR15), 22.9 µM; on HLA-DR DRB1*1302 (DR13), above 11.4 µM. Moreover, the results for the IC50 against HLA-DR DRB1*0405 (DR4) (DRB1 *0405) and on HLA-DR DRB1*1101 (DR11) were 0.374 µM and above 31.6 µM, respectively.
In the case of MLDLQPETTDLYCYE, the IC50 is above 32.2 µM at HLA-DR DRB1*0901 (DR9) (read-out: DRB1 *0901); above 72.3 µM at HLA-DR DRB1*0701 (DR7) (read-out: DRB1 *0701); 1.91 µM at HLA-DR DRB1*0401 (DR4) (read-out: DRB1 *0401); 4.25 µM on HLA-DR DRB1*0405 (DR4) (read-out: DRB1 *0405); 0.72 µM on HLA-DR DRB1*0301 (DR3) (read-out: DRB1 *0301).
In the case of NYSVYGNTLEQTVKK, the IC50 against HLA-DR DRB1*0901 (DR9) (DRB1 *0901) was 47.5 µM; against HLA-DR DRB4*0101 (DR53), above 25.1 µM; on HLA-DR DRB1*0701 (DR7) (DRB1 *0701), above 14.6 µM; at HLA-DR DRB1*0401 (DR4) (DRB1 *0401), 1.93 µM; on HLA-DR DRB1*1501 (DR15) it was 15.6 µM; against HLA-DR DRB1*1302 (DR13) it was 8.61 µM. For the same compound, the IC50 against HLA-DR DRB1*0405 (DR4) (DRB1 *0405) was 0.822 µM; against HLA-DR DRB1*0101 (DR1) (DRB1 *0101), 14.1 µM; against HLA-DR DRB1*1101 (DR11) it was above 56.7 µM.
For CSNLSTCVLQKLSQE, the IC50 on HLA-DR DRB1*0901 (DR9) (read-out: DRB1 *0901) was 7.23 µM; at HLA-DR DRB1*0701 (DR7) (read-out: DRB1 *0701), 31.8 µM; at HLA-DR DRB1*0405 (DR4) (read-out: DRB1 *0405) it was 5.34 µM; at HLA-DR DRB1*0301 (DR3) (read-out: DRB1 *0301), above 205 µM.
Take `CC[C@H](C)[C@H](NC(=O)[C@H](CCC(=O)O)NC(=O)[C@H](CC(C)C)NC(=O)[C@H](C)NC(=O)[C@H](CO)NC(=O)[C@H](CO)NC(=O)[C@H](CC(C)C)NC(=O)[C@H](CCC(=O)O)NC(=O)[C@H](Cc1c[nH]cn1)NC(=O)[C@H](CC(C)C)NC(=O)[C@H](CCCCN)NC(=O)[C@H](CCCNC(=N)N)NC(=O)[C@@H]1CCCN1)C(=O)N1CCC[C@H]1C(=O)N[C@@H](Cc1ccc(O)cc1)C(=O)O`: the IC50 at HLA-DR DRB5*0101 (DR51) is above 10.7 µM; against HLA-DR DRB1*0901 (DR9) (DRB1 *0901), 0.213 µM; at HLA-DR DRB1*0401 (DR4) (DRB1 *0401), 5.28 µM; at HLA-DR DRB1*1501 (DR15) it was 1.12 µM; against HLA-DR DRB1*1302 (DR13), 0.051 µM; against HLA-DR DRB1*0405 (DR4) (DRB1 *0405), 0.08 µM. Moreover, at HLA-DR DRB1*0301 (DR3), the IC50 stood at 16.1 µM.
TIVYRDDTPHGVCTK: the IC50 against HLA-DR DRB5*0101 (DR51) was above 62.3 µM; at HLA-DR DRB1*0901 (DR9) (DRB1 *0901), above 39.1 µM; against HLA-DR DRB4*0101 (DR53), above 21.5 µM; against HLA-DR DRB1*0701 (DR7) (DRB1 *0701), above 35.6 µM; against HLA-DR DRB1*1501 (DR15), 5.45 µM; on HLA-DR DRB1*1302 (DR13), 6.28 µM. Further, the IC50 at HLA-DR DRB1*0405 (DR4) (DRB1 *0405) is above 9.75 µM; on HLA-DR DRB1*0101 (DR1) (DRB1 *0101) it was 3.8 µM; at HLA-DR DRB1*1101 (DR11) it was above 18 µM.
LTIVYRDDTPHGVCT: the IC50 at HLA-DR DRB1*0901 (DR9) (read-out: DRB1 *0901) was above 25.3 µM; on HLA-DR DRB1*0701 (DR7) (read-out: DRB1 *0701), above 72.3 µM; at HLA-DR DRB1*0401 (DR4) (read-out: DRB1 *0401), 0.023 µM; at HLA-DR DRB1*0405 (DR4) (read-out: DRB1 *0405), above 8.59 µM; on HLA-DR DRB1*0101 (DR1) (read-out: DRB1 *0101), above 15.4 µM; on HLA-DR DRB1*0301 (DR3) (read-out: DRB1 *0301), 0.187 µM.
As for VYDFVFADLRIVYRD, the IC50 was found to be 0.198 µM on HLA-DR DRB1*0901 (DR9) (read-out: DRB1 *0901); 0.475 µM at HLA-DR DRB1*0401 (DR4) (read-out: DRB1 *0401); 0.717 µM at HLA-DR DRB1*0405 (DR4) (read-out: DRB1 *0405); 0.098 µM at HLA-DR DRB1*0101 (DR1) (read-out: DRB1 *0101); 0.0022 µM at HLA-DR DRB1*0301 (DR3) (read-out: DRB1 *0301).
On to RETLQEIVLHLEPQN, for which the IC50 was above 55.1 µM at HLA-DR DRB5*0101 (DR51); 19.1 µM against HLA-DR DRB1*0901 (DR9) (DRB1 *0901); 0.095 µM at HLA-DR DRB4*0101 (DR53); 25.9 µM on HLA-DR DRB1*0701 (DR7) (DRB1 *0701); 2.94 µM on HLA-DR DRB1*0401 (DR4) (DRB1 *0401); 16.2 µM against HLA-DR DRB1*1501 (DR15). In addition, the IC50 stood at 11.4 µM on HLA-DR DRB1*1302 (DR13), 0.829 µM against HLA-DR DRB1*0405 (DR4) (DRB1 *0405), 1.59 µM at HLA-DR DRB1*0101 (DR1) (DRB1 *0101) and 7.9 µM against HLA-DR DRB1*1101 (DR11).
`CSCC[C@H](NC(=O)[C@H](Cc1ccc(O)cc1)NC(=O)[C@H](CCC(=O)O)NC(=O)[C@@H](N)Cc1c[nH]cn1)C(=O)N[C@@H](CC(C)C)C(=O)N[C@@H](CC(=O)O)C(=O)N[C@@H](CC(C)C)C(=O)N[C@@H](CCC(N)=O)C(=O)N1CCC[C@H]1C(=O)N[C@@H](CCC(=O)O)C(=O)N[C@H](C(=O)N[C@H](C(=O)N[C@@H](CC(=O)O)C(=O)N[C@@H](CC(C)C)C(=O)N[C@@H](Cc1ccc(O)cc1)C(=O)O)[C@@H](C)O)[C@@H](C)O`: the IC50 against HLA-DR DRB5*0101 (DR51) is above 22.9 µM; against HLA-DR DRB1*0901 (DR9) (DRB1 *0901), 21.3 µM; on HLA-DR DRB4*0101 (DR53), 2.1 µM; against HLA-DR DRB1*0701 (DR7) (DRB1 *0701) it was above 18.6 µM; against HLA-DR DRB1*1501 (DR15) it was 30.9 µM; against HLA-DR DRB1*1302 (DR13) it was 13 µM. Moreover, the IC50 at HLA-DR DRB1*0405 (DR4) (DRB1 *0405) was 2.29 µM; against HLA-DR DRB1*1101 (DR11), above 56.2 µM.
